# ± gives the expanded uncertainty stated by the source.
# Columns and labels:
# [1] = refractive index (Na D-line) (dimensionless); settings: 101.33 kPa, Liquid, Standard Abbe refractometry
# [2] = 101.33 kPa, Liquid; for viscosity: Concentric cylinders viscometry; for mass density: Vibrating tube method
SMILES,refractive index ([1]; 298.15 K),viscosity ([2]; 298.15 K),mass density ([2]; 298.15 K),refractive index ([1]; 323.15 K),viscosity ([2]; 323.15 K),mass density ([2]; 323.15 K),further results
CC(O)CN (centres undefined) [1-amino-2-propanol],1.4459 ± 0.00082,23.26 ± 0.41 mPa·s,956.644 ± 1 kg/m3,,,,
OCCNCCO [diethanolamine],1.4764 ± 0.00073,566.57 ± 46 mPa·s,1093.22 ± 0.17 kg/m3,,,,
CC(O)CN(CC(C)O)CC(C)O (centres undefined) [triisopropanolamine],,,,1.45233 ± 0.0012,132.3 ± 5.5 mPa·s,990.616 ± 6.8 kg/m3,
CC(O)CNCC(C)O (centres undefined) [N-(2-hydroxypropyl)-2-hydroxy-1-propanamine],,,,1.45139 ± 0.00068,123.21 ± 4.4 mPa·s,984.835 ± 1.1 kg/m3,refractive index ([1]; 313.15 K): 1.45517 ± 0.00068; viscosity ([2]; 313.15 K): 308.54 ± 11 mPa·s; mass density ([2]; 313.15 K): 992.46 ± 1.1 kg/m3
O [water],1.33249 ± 0.00042,0.9123 ± 0.0097 mPa·s,,,,,refractive index ([1]; 293.15 K): 1.33304 ± 0.00042; viscosity ([2]; 293.15 K): 1.019 ± 0.01 mPa·s

# Reference: the NIST ThermoML archive (doi:10.1021/je300938w)
